This experiment deals with HCV genotype 1b replicon. As to the kind of experiment: HCV replicon assay, cell ELISA with antibody to replicon-encoded NS3/4A (genotype 1b replicon). Particulars: Hepatitis C virus, 96 h, read-out: Replicon 1b IC50 (nM), HCV genotype 1b replicon cells, 96 hours incubation, NS3/4A ELISA readout. The format is cell-based, hepatitis C virus. In short, it runs like this:
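An ELISA on lysed cells, using an antibody against NS3/4A protease, served as the proxy for replicon RNA. Cells had first been exposed for 96 h to serially diluted compound in G418-free conditions. Percent of DMSO control was fitted with a four-parameter function to give IC50.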
A general note: A replicon is a self-replicating genome or part of one, used to study replication in cells.
Take `CONC(=O)c1c(-c2ccc(F)cc2)oc2cc(N(C)S(C)(=O)=O)c(-c3ccccc3OC)cc12` [Example 91, 2-(4-fluorophenyl)-N-methoxy-5-(2-methoxyphenyl)-6-[methyl (methylsulfonyl)amino]-1-benzofuran-3-carboxamide]: the IC50 was found to be 342 nM. For the compound `CONC(=O)c1c(-c2ccc(F)cc2)oc2cc(N(C)S(C)(=O)=O)c(-c3cccc(C)c3)cc12` [Example 92, 2-(4-fluorophenyl)-N-methoxy-6-[methyl (methylsulfonyl)amino]-5-(3-methylphenyl)-1-benzofuran-3-carboxamide], the IC50 was 252 nM. With `CONC(=O)c1c(-c2ccc(F)cc2)oc2cc(N(C)S(C)(=O)=O)c(-c3ccc(C)cc3)cc12` [Example 93, 2-(4-fluorophenyl)-N-methoxy-6-[methyl (methylsulfonyl)amino]-5-(4-methylphenyl)-1-benzofuran-3-carboxamide] the figure was 54 nM; with `CONC(=O)c1c(-c2ccc(F)cc2)oc2cc(N(C)S(C)(=O)=O)c(-c3cccc(C#N)c3)cc12` [Example 94, 5-(3-cyanophenyl)-2-(4-fluorophenyl)-N-methoxy-6-[methyl (methylsulfonyl)amino]-1-benzofuran-3-carboxamide], 450 nM. Next, `CONC(=O)c1c(-c2ccc(F)cc2)oc2cc(N(C)S(C)(=O)=O)c(-c3cccc(F)c3)cc12` [Example 95, 5-(3-fluorophenyl)-2-(4-fluorophenyl)-N-methoxy-6-[methyl (methylsulfonyl)amino]-1-benzofuran-3-carboxamide]: 130 nM. With `CONC(=O)c1c(-c2ccc(F)cc2)oc2cc(N(C)S(C)(=O)=O)c(-c3ccc(F)cc3)cc12` [Example 96, 2,5-bis(4-fluorophenyl)-N-methoxy-6-[methyl (methylsulfonyl)amino]-1-benzofuran-3-carboxamide], the IC50 came out at 1230 nM. With `CONC(=O)c1c(-c2ccc(F)cc2)oc2cc(N(C)S(C)(=O)=O)c(-c3cccc(OC)c3)cc12` [Example 97, 2-(4-fluorophenyl)-N-methoxy-5-(3-methoxyphenyl)-6-[methyl (methylsulfonyl)amino]-1-benzofuran-3-carboxamide] the figure was 126 nM. With `CONC(=O)c1c(-c2ccc(F)cc2)oc2cc(N(C)S(C)(=O)=O)c(-c3ccc(OC)cc3)cc12` [Example 98, 2-(4-fluorophenyl)-N-methoxy-5-(4-methoxyphenyl)-6-[methyl (methylsulfonyl)amino]-1-benzofuran-3-carboxamide] the figure was 72 nM; with `CONC(=O)c1cccc(-c2cc3c(C(=O)NOC)c(-c4ccc(F)cc4)oc3cc2N(C)S(C)(=O)=O)c1` [Example 99, 2-(4-fluorophenyl)-N-methoxy-5-[3-(methoxycarbamoyl)phenyl]-6-[methyl(methylsulfonyl)amino]-1-benzofuran-3-carboxamide], 623 nM.

On to `CNC(=O)c1cccc(-c2cc3c(C(=O)NC)c(-c4ccc(F)cc4)oc3cc2N(C)S(C)(=O)=O)c1` [Example 100, 2-(4-fluorophenyl)-N-methyl-5-[3-(methylcarbamoyl)phenyl]-6-[methyl(methylsulfonyl)amino]-1-benzofuran-3-carboxamide], for which the IC50 was 45 nM.

Consider `CNC(=O)c1c(-c2ccc(F)cc2)oc2cc(N(C)S(C)(=O)=O)c(-c3cccc(CN)c3)cc12` [Example 101, 5-[3-(aminomethyl)phenyl]-2-(4-fluorophenyl)-N-methyl-6-[methyl(methylsulfonyl)amino]-1-benzofuran-3-carboxamide], for which the IC50 came out at 505 nM. Next, `CNC(=O)c1c(-c2ccc(F)cc2)oc2cc(N(C)S(C)(=O)=O)c(-c3cccc(CNS(C)(=O)=O)c3)cc12` [Example 102, 2-(4-fluorophenyl)-N-methyl-6-[methyl(methylsulfonyl)amino]-5-(3-{[(methylsulfonyl)amino]methyl}phenyl)-1-benzofuran-3-carboxamide]: 7 nM.

For `CNC(=O)c1c(-c2ccc(F)cc2)oc2cc(N(C)S(C)(=O)=O)c(-c3cccc(CNS(=O)(=O)c4ccccc4)c3)cc12` [Example 103, 2-(4-fluorophenyl)-N-methyl-6-[methyl(methylsulfonyl)amino]-5-(3-{[(phenylsulfonyl)amino]methyl}phenyl)-1-benzofuran-3-carboxamide], the IC50 is below 8 nM. On to `CNC(=O)c1c(-c2ccc(F)cc2)oc2cc(N(C)S(C)(=O)=O)c(-c3ccc(CNS(C)(=O)=O)cc3)cc12` [Example 104], for which the IC50 was 164 nM. Next, `CNC(=O)c1c(-c2ccc(F)cc2)oc2cc(N(C)S(C)(=O)=O)c(-c3ccc(CNS(=O)(=O)c4ccccc4)cc3)cc12` [Example 105, 2-(4-fluorophenyl)-N-methyl-6-[methyl (methylsulfonyl)amino]-5-(4-{[(phenylsulfonyl)amino]methyl}phenyl)-1-benzofuran-3-carboxamide]: 57 nM; `CNC(=O)c1c(-c2ccc(F)cc2)oc2cc(N(C)S(C)(=O)=O)c(-c3ccc(C(F)(F)F)cc3)cc12` [Example 108, 2-(4-fluorophenyl)-N-methyl-6-[methyl(methylsulfonyl)amino]-5-[4-(trifluoromethyl)phenyl]-1-benzofuran-3-carboxamide]: 53 nM; `CNC(=O)c1c(-c2ccc(F)cc2)oc2cc(N(C)S(C)(=O)=O)c(-c3ccc(OC(C)C)cc3)cc12` [Example 109, 2-(4-fluorophenyl)-N-methyl-6-[methyl(methylsulfonyl)amino]-5-[4-(propan-2-yloxy)phenyl]-1-benzofuran-3-carboxamide]: 216 nM. With `CCc1ccc(-c2cc3c(C(=O)NC)c(-c4ccc(F)cc4)oc3cc2N(C)S(C)(=O)=O)cc1` [Example 110, 5-(4-ethylphenyl)-2-(4-fluorophenyl)-N-methyl-6-[methyl(methylsulfonyl)amino]-1-benzofuran-3-carboxamide] the figure was 90 nM; with `CNC(=O)c1c(-c2ccc(F)cc2)oc2cc(N(C)S(C)(=O)=O)c(-c3cc(F)cc(F)c3)cc12` [Example 111, 5-(3,5-difluorophenyl)-2-(4-fluorophenyl)-N-methyl-6-[methyl(methylsulfonyl)amino]-1-benzofuran-3-carboxamide], 40 nM. As for `CNC(=O)c1c(-c2ccc(F)cc2)oc2cc(N(C)S(C)(=O)=O)c(-c3ccc(-c4ccccc4)cc3)cc12` [Example 112, 5-(biphenyl-4-yl)-2-(4-fluorophenyl)-N-methyl-6-[methyl(methylsulfonyl)amino]-1-benzofuran-3-carboxamide], the IC50 was below 8 nM. `CNC(=O)c1c(-c2ccc(F)cc2)oc2cc(N(C)S(C)(=O)=O)c(-c3ccc(O)cc3)cc12` [Example 113, 2-(4-fluorophenyl)-5-(4-hydroxyphenyl)-N-methyl-6-[methyl(methylsulfonyl)amino]-1-benzofuran-3-carboxamide]: the IC50 came to 74 nM. `CNC(=O)c1c(-c2ccc(F)cc2)oc2cc(N(CCNCc3ccccc3)S(C)(=O)=O)c(-c3ccccc3)cc12` [Example 123, 6-{[2-(benzylamino)ethyl](methylsulfonyl)amino}-2-(4-fluorophenyl)-N-methyl-5-phenyl-1-benzofuran-3-carboxamide]: the IC50 turned out to be 111 nM.

As to `CNC(=O)c1c(-c2ccc(F)cc2)oc2cc(N(CCN(C)Cc3ccccc3)S(C)(=O)=O)c(-c3ccccc3)cc12` [Example 124, 6-[{2-[benzyl(methyl)amino]ethyl} (methylsulfonyl)amino]-2-(4-fluorophenyl)-N-methyl-5-phenyl-1-benzofuran-3-carboxamide], the IC50 is above 10000 nM.

Take `CNC(=O)c1c(-c2ccc(F)cc2)oc2cc(N(C)S(C)(=O)=O)c(-c3cccc(-c4nc5ccccc5s4)c3)cc12` [Example 135, 5-(3-(benzo[d]thiazol-2-yl)phenyl)-2-(4-fluorophenyl)-N-methyl-6-(N-methylmethylsulfonamido)-1-benzofuran-3-carboxamide]: the IC50 came to 4 nM. With `CNC(=O)c1c(-c2ccc(F)cc2)oc2cc(N(C)S(C)(=O)=O)c(-c3cccc(-c4cnc(-c5ccccc5)s4)c3)cc12` [Example 136, 2-(4-fluorophenyl)-N-methyl-6-[methyl (methylsulfonyl)amino]-5-[3-(2-phenyl-1,3-thiazol-5-yl)phenyl]-1-benzofuran-3-carboxamide] the figure was 16 nM; with `CNC(=O)c1c(-c2ccc(F)cc2)oc2cc(N(C)S(C)(=O)=O)c(-c3cccc(-c4nnc(-c5ccccc5)o4)c3)cc12` [Example 137, 2-(4-fluorophenyl)-N-methyl-6-[methyl (methylsulfonyl)amino]-5-[3-(5-phenyl-1,3,4-oxadiazol-2-yl)phenyl]-1-benzofuran-3-carboxamide], 6 nM; with `CNC(=O)c1c(-c2ccc(F)cc2)oc2cc(N(C)S(C)(=O)=O)c(-c3cccc(-c4noc5ccccc45)c3)cc12` [Example 138, 5-[3-(1,2-benzisoxazol-3-yl)phenyl]-2-(4-fluorophenyl)-N-methyl-6-[methyl (methylsulfonyl)amino]-1-benzofuran-3-carboxamide], 9 nM. Next, `CNC(=O)c1c(-c2ccc(F)cc2)oc2cc(N(C)S(C)(=O)=O)c(-c3cccc(-c4nnn(Cc5ccccc5)n4)c3)cc12` [Example 139, 5-[3-(2-benzyl-2H-tetrazol-5-yl)phenyl]-2-(4-fluorophenyl)-N-methyl-6-[methyl (methylsulfonyl)amino]-1-benzofuran-3-carboxamide]: 5 nM.

With `CNC(=O)c1c(-c2ccc(F)cc2)oc2cc(N(C)S(C)(=O)=O)c(-c3cccc(-c4nnn(CC(=O)O)n4)c3)cc12` [Example 140, [5-(3-{2-(4-fluorophenyl)-3-(methylcarbamoyl)-6-[methyl (methylsulfonyl)amino]-1-benzofuran-5-yl}phenyl)-2H-tetrazol-2-yl]acetic acid], the IC50 amounted to 1190 nM.

(Values after US20120328569A1, “INHIBITORS OF HEPATITIS C VIRUS NS5B POLYMERASE” (priority 2010, published 2012).)
